Publication PMC7214099 (Cell reports, 2020)

Test system: IAV PA 1–192 aa endonuclease
Assay type: binding

In the case of `O=C1c2c(O)c(=O)ccn2N([C@@H]2c3ccccc3SCc3c2ccc(F)c3F)[C@@H]2COCCN12` [BXA, Baloxavir acid], the “increase in thermostability of IAV endonuclease” value is reported as 28.1 °C.
